The subject of one assay is Past. haemolytica PA5. Nature of the assay: MIC against veterinary bacteria in vitro. The settings on record: Mannheimia haemolytica, PA5, 18 h.
Assay [1] has as its system Staph. aureus B4 (pen. resistant). Nature of the assay: MIC against veterinary bacteria in vitro. The settings on record: Staphylococcus aureus, 18 h.
Method: (§1) The activity of the compounds of the Examples against various veterinarily important bacteria, was assayed in vitro using two-fold serial dilutions in Diagnostic Sensitivity Test Agar inoculated with 10^4 organisms.
The test system of assay [2] is M. suipneumoniae J2206/183^b. Nature of the assay: MIC against mycoplasma in vitro. It counts as cell-based. The conditions noted are these: Mesomycoplasma hyopneumoniae, 144 h.
For assay [3], the system named is Haemophilus influenzae Q1. Nature of the assay: MIC against human bacteria in vitro. The class given is cell-based. The conditions noted are these: Haemophilus influenzae Q1; 5% chocolated horse blood agar, 18 hours; read-out: MIC.
Another assay relates to Staph. aureus Oxford. Nature of the assay: MIC against human bacteria in vitro. The class given is cell-based. The conditions noted are these: Staphylococcus aureus; Staph. aureus Oxford; 5% chocolated horse blood agar, 18 hours; read-out: MIC.
For assay [4], the system named is Pasteurella multocida 1633. Nature of the assay: MIC against human bacteria in vitro. The class given is cell-based. The settings on record: Pasteurella multocida 1633; 5% chocolated horse blood agar, 18 hours; read-out: MIC.
Assay [5] relates to M. hyosynoviae ATCC 25591. Nature of the assay: MIC against mycoplasma in vitro. It counts as cell-based. The conditions noted are these: 144 h.
A further assay deals with M. bovis NCTC 10131. Nature of the assay: microbe, parasite or virus in culture. The settings on record: NCTC10131, 144 h. The class given is cell-based.
Another assay deals with P. mirabilis 889. Nature of the assay: MIC against human bacteria in vitro. The class given is cell-based. The settings on record: Proteus mirabilis; P. mirabilis 889; 5% chocolated horse blood agar, 18 hours; read-out: MIC.
In assay [6] the test system is Strep. suis (group D) SPS11. Nature of the assay: MIC against veterinary bacteria in vitro. The conditions noted are these: Streptococcus suis, 18 h.
Method: as §1
A further assay concerns Bord. bronchiseptica B08. Nature of the assay: MIC against veterinary bacteria in vitro. The conditions noted are these: Bordetella bronchiseptica, B08, 18 h.
In another assay the test system is Bord. bronchiseptica B09. Nature of the assay: MIC against veterinary bacteria in vitro. The conditions noted are these: Bordetella bronchiseptica, B09, 18 h.
Another assay concerns M. suipneumoniae JF 435. Nature of the assay: MIC against mycoplasma in vitro. The settings on record: Mesomycoplasma hyopneumoniae, JF435, 144 h. It counts as cell-based.
Another assay concerns E. coli NCTC 10418. Nature of the assay: MIC against veterinary bacteria in vitro. The settings on record: Escherichia coli, NCTC10418, 18 h.
The test system of assay [7] is M. suipneumoniae NCTC 10110. Nature of the assay: MIC against mycoplasma in vitro. The class given is cell-based. The settings on record: Mesomycoplasma hyopneumoniae, NCTC10110, 144 h.
The test system of a further assay is M. gallisepticum S6. Nature of the assay: MIC against mycoplasma in vitro. The class given is cell-based. The conditions noted are these: Mycoplasmoides gallisepticum.
The test system of another assay is Past. multocida PA1. Nature of the assay: MIC against veterinary bacteria in vitro. The conditions noted are these: Pasteurella multocida, PA1, 18 h.
In a further assay the test system is E. coli E1. Nature of the assay: MIC against veterinary bacteria in vitro. The settings on record: Escherichia coli, E1, 18 h.
A further assay concerns M. dispar NCTC 10125. Nature of the assay: MIC against mycoplasma in vitro. The conditions noted are these: 144 h. The class given is cell-based.
Assay [8] has as its system M. suipneumoniae PW/C/210. Nature of the assay: MIC against mycoplasma in vitro. It counts as cell-based. The conditions noted are these: Mesomycoplasma hyopneumoniae, 144 h.
The subject of another assay is M. suipneumoniae UCD 1. Nature of the assay: MIC against mycoplasma in vitro. The class given is cell-based. The conditions noted are these: Mesomycoplasma hyopneumoniae, UCD1, 144 h.
Another assay concerns Strep. agalactiae SPA1. Nature of the assay: MIC against veterinary bacteria in vitro. The settings on record: Streptococcus agalactiae, SPA1, 18 h.
A further assay relates to M. pneumoniae ATCC 15492. Nature of the assay: MIC against mycoplasma in vitro. The class given is cell-based. The settings on record: Mycoplasmoides pneumoniae, ATCC15492, 144 h.
The mark [9] stands for this setting: 144 h, M. gallisepticum S6, 6 days, 37° C., read-out: MIC.
Where [10] appears, read: M. hyosynoviae ATCC 25591, 6 days, 37° C., read-out: MIC.

We go through three compounds from US5041567A, “Antibacterial monic acid derivatives” (Beecham Group plc, priority 1982, dated 1991).

Structures are written as SMILES. In brackets after ≈: the same amount, converted by molar mass. Like-named read-outs stand apart in the source and are kept apart here. Some results are limits rather than exact numbers.

Method for Bord. bronchiseptica B08: as §1
Method for Bord. bronchiseptica B09: as §1
Method for E. coli E1: as §1
Method for E. coli NCTC 10418: as §1
Method for Past. haemolytica PA5: as §1
Method for Past. multocida PA1: as §1
Method for Strep. agalactiae SPA1: as §1

As for `COc1ccc(-c2cnc(/C=C(\C)C[C@@H]3OC[C@H](C[C@@H]4O[C@H]4[C@@H](C)[C@H](C)O)[C@@H](O)[C@H]3O)o2)cc1` [Example 4, 5-p-methoxyphenyl-2-(1-normon-2-yl)oxazole A], the MIC against Past. haemolytica PA5 is 40 µg/mL (≈ 84.5 µM); in assay [1], 5 µg/mL (≈ 10.6 µM); in assay [2], 1 µg/mL (≈ 2.11 µM); in [3], 2.5 µg/mL (≈ 5.28 µM); with Staph. aureus Oxford it was 2.5 µg/mL (≈ 5.28 µM); in assay [4], 25 µg/mL (≈ 52.8 µM). Besides, the MIC is 0.5 µg/mL (≈ 1.06 µM) in assay [5]; 0.025 µg/mL (≈ 0.0528 µM) with M. bovis NCTC 10131; greater than 100 µg/mL in the assay on P. mirabilis 889; 20 µg/mL (≈ 42.2 µM) in assay [6]; greater than 80 µg/mL with Bord. bronchiseptica B08; 20 µg/mL (≈ 42.2 µM) against Bord. bronchiseptica B09. Moreover, the MIC against M. suipneumoniae JF 435 is 1 µg/mL (≈ 2.11 µM); against E. coli NCTC 10418, greater than 80 µg/mL; in assay [7] it was 1 µg/mL (≈ 2.11 µM); in the assay with M. gallisepticum S6 (setting [9]), 2.5 µg/mL (≈ 5.28 µM); against Past. multocida PA1, 5 µg/mL (≈ 10.6 µM); in the assay on E. coli E1 it was greater than 80 µg/mL. The values for the MIC (against M. dispar NCTC 10125; in assay [8]; against M. suipneumoniae UCD 1) were 0.25 µg/mL (≈ 0.528 µM), 0.5 µg/mL (≈ 1.06 µM) and 1 µg/mL (≈ 2.11 µM), respectively.

For `C/C(=C\c1ncc(-c2ccc(Br)cc2)o1)C[C@@H]1OC[C@H](C[C@@H]2O[C@H]2[C@@H](C)[C@H](C)O)[C@@H](O)[C@H]1O` [Example 18, 5-p-Bromophenyl-2-(1-normon-2-yl) oxazole A], the MIC against Past. haemolytica PA5 was 40 µg/mL (≈ 76.6 µM); in assay [1], 0.156 µg/mL (≈ 0.299 µM); in assay [2] it was 1 µg/mL (≈ 1.91 µM); in the assay with Staph. aureus Oxford, 2 µg/mL (≈ 3.83 µM); in assay [4], 16 µg/mL (≈ 30.6 µM); in assay [5] (setting [10]), 0.5 µg/mL (≈ 0.957 µM). In addition, the MIC is 0.625 µg/mL (≈ 1.2 µM) with Strep. agalactiae SPA1; 0.05 µg/mL (≈ 0.0957 µM) with M. bovis NCTC 10131; greater than 128 µg/mL in the assay with P. mirabilis 889; 10 µg/mL (≈ 19.1 µM) in assay [6]; 40 µg/mL (≈ 76.6 µM) in the assay on Bord. bronchiseptica B08; 10 µg/mL (≈ 19.1 µM) with Bord. bronchiseptica B09. In addition, the MIC in the assay with M. suipneumoniae JF 435 (M. suipneumoniae JF 435, 6 days, 37° C., read-out: MIC) was 0.5 µg/mL (≈ 0.957 µM); with E. coli NCTC 10418 it was greater than 80 µg/mL; in assay [7] it was 1 µg/mL (≈ 1.91 µM); with M. pneumoniae ATCC 15492 it was 1 µg/mL (≈ 1.91 µM); in the assay on M. gallisepticum S6 (S6, 144 h), 1 µg/mL (≈ 1.91 µM); against Past. multocida PA1, 10 µg/mL (≈ 19.1 µM). Also, the MIC in the assay with E. coli E1 was greater than 80 µg/mL; in the assay with M. dispar NCTC 10125 it was 0.25 µg/mL (≈ 0.479 µM); in [8] it was 0.25 µg/mL (≈ 0.479 µM); in the assay with M. suipneumoniae UCD 1 (M. suipneumoniae UCD 1, 6 days, 37° C., read-out: MIC), 0.5 µg/mL (≈ 0.957 µM).

As to `C/C(=C\c1ncc(CCCCCCCCO)o1)C[C@@H]1OC[C@H](C[C@@H]2O[C@H]2[C@@H](C)[C@H](C)O)[C@@H](O)[C@H]1O` [Example 19, 5-(8-Hydroxyoctyl)-2-(1-normon-2-yl) oxazole A], the MIC against Past. haemolytica PA5 is greater than 80 µg/mL; in assay [1] it was 1.25 µg/mL (≈ 2.52 µM); in assay [2] (M. suipneumoniae J2206/183^b, 6 days, 37° C., read-out: MIC), 5 µg/mL (≈ 10.1 µM); with Staph. aureus Oxford, 4 µg/mL (≈ 8.07 µM); in assay [4] it was 32 µg/mL (≈ 64.6 µM); in assay [5] (setting [10]) it was 0.5 µg/mL (≈ 1.01 µM). In addition, the MIC was 10 µg/mL (≈ 20.2 µM) against Strep. agalactiae SPA1; 0.025 µg/mL (≈ 0.0504 µM) against M. bovis NCTC 10131; greater than 128 µg/mL with P. mirabilis 889; 80 µg/mL (≈ 161 µM) in assay [6]; greater than 80 µg/mL in the assay on Bord. bronchiseptica B08; 20 µg/mL (≈ 40.4 µM) in the assay on Bord. bronchiseptica B09. The MIC was 2.5 µg/mL (≈ 5.04 µM) in the assay with M. suipneumoniae JF 435; greater than 80 µg/mL against E. coli NCTC 10418; 5 µg/mL (≈ 10.1 µM) in [7] (M. suipneumoniae NCTC 10110, 6 days, 37° C., read-out: MIC); 1 µg/mL (≈ 2.02 µM) against M. pneumoniae ATCC 15492; 10 µg/mL (≈ 20.2 µM) with M. gallisepticum S6 (setting [9]); greater than 80 µg/mL with E. coli E1. Moreover, the MIC with M. dispar NCTC 10125 (M. dispar NCTC 10125, 6 days, 37° C., read-out: MIC) was found to be 0.5 µg/mL (≈ 1.01 µM); in assay [8] it was 0.25 µg/mL (≈ 0.504 µM); in the assay with M. suipneumoniae UCD 1, 2.5 µg/mL (≈ 5.04 µM).
